Among the test systems are A549 NSCLC; MCF7 breast; MDA-MB-435; NCI-H460 lung; OVCAR-4 ovarian; PC-3 prostate; SK-MEL-28 melanoma; SK-OV-3 ovarian; SN12C renal; TK-10 renal.
Common to all, as to test: inhibition of tumour cell growth, NCI panel, 48 h

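Each compound was tested at five concentrations against cells in 96-well plates for 48 hours. TGI marks complete inhibition of growth.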

Regarding `CC(C)C1(O)C(=O)N(c2c(F)c(F)c(F)c(F)c2F)C(=S)N1CCSc1ccccc1` (stereo not given), the TGI in the experiment with A549 NSCLC is 29.2 µM; in the experiment with MCF7 breast, 31.7 µM; with MDA-MB-435 it was 32.8 µM; in the experiment with NCI-H460 lung it was 38.4 µM; in the experiment on OVCAR-4 ovarian it was 29.1 µM; with PC-3 prostate it was 29.2 µM. In addition, the TGI amounted to 30.3 µM with SK-MEL-28 melanoma, 31 µM with SK-OV-3 ovarian, 29.3 µM in the experiment on SN12C renal and 27.9 µM in the experiment with TK-10 renal.

As to `CS(=O)(=O)NC12CCC(c3ccccc31)c1ccccc12`, the TGI in the experiment on A549 NSCLC, in the experiment with MCF7 breast, with MDA-MB-435, with NCI-H460 lung, in the experiment with OVCAR-4 ovarian and in the experiment on PC-3 prostate was more than 100 µM throughout. The TGI with SK-MEL-28 melanoma, in the experiment on SK-OV-3 ovarian, in the experiment with SN12C renal and with TK-10 renal was more than 100 µM throughout.

Regarding `COC(=O)c1c(C)nc(C)c(NO)c1-c1ccccc1C(F)(F)F`, the TGI with A549 NSCLC was more than 100 µM; in the experiment on MCF7 breast, 39.2 µM; with MDA-MB-435, 37.6 µM; with NCI-H460 lung it was more than 100 µM; in the experiment with OVCAR-4 ovarian, 39.2 µM; with PC-3 prostate it was more than 100 µM. For the same compound, the TGI was 38.1 µM in the experiment on SK-MEL-28 melanoma, more than 100 µM in the experiment on SK-OV-3 ovarian, 62.4 µM in the experiment on SN12C renal and 37.4 µM with TK-10 renal.

In the case of `COc1ccc(-c2cc(C(O)C3CCCCN3)c3ccccc3n2)cc1` (stereo not given), the TGI with A549 NSCLC was 27.8 µM; in the experiment with MCF7 breast, 14.2 µM; with MDA-MB-435, 15.1 µM; with NCI-H460 lung it was 10.4 µM; with OVCAR-4 ovarian, 27.5 µM; with PC-3 prostate, 16.9 µM. For the same compound, the TGI in the experiment on SK-MEL-28 melanoma was found to be 5.49 µM; in the experiment on SK-OV-3 ovarian, 27.3 µM; in the experiment with SN12C renal, 23.7 µM; in the experiment with TK-10 renal, 23.7 µM.

`CCCNc1ncnc2[nH]ncc12`: the TGI in the experiment on A549 NSCLC, in the experiment on MCF7 breast, in the experiment on MDA-MB-435, in the experiment on NCI-H460 lung, in the experiment with OVCAR-4 ovarian and with PC-3 prostate was more than 100 µM in each case. Moreover, the TGI in the experiment on SK-MEL-28 melanoma, in the experiment on SK-OV-3 ovarian, in the experiment with SN12C renal and with TK-10 renal was more than 100 µM throughout.

For `C(/Cc1ccc2c(c1)OCO2)=N\NC1=NCCCN1`, the TGI with A549 NSCLC, in the experiment on MCF7 breast, in the experiment with MDA-MB-435, with NCI-H460 lung, with OVCAR-4 ovarian and in the experiment with PC-3 prostate was more than 100 µM in each case. Also, the TGI with SK-MEL-28 melanoma, in the experiment on SK-OV-3 ovarian, in the experiment on SN12C renal and in the experiment with TK-10 renal was more than 100 µM throughout.

As to `Cc1ccc(/C(O)=C/c2nc3ccc([N+](=O)[O-])cc3nc2/C=C(\O)c2ccc(C)cc2)cc1`, the TGI with A549 NSCLC, with MCF7 breast, in the experiment with MDA-MB-435, in the experiment with NCI-H460 lung, with OVCAR-4 ovarian and in the experiment on PC-3 prostate was more than 100 µM throughout. Further, the TGI in the experiment with SK-MEL-28 melanoma was more than 100 µM; with SK-OV-3 ovarian, 97.6 µM; in the experiment on SN12C renal, more than 100 µM; in the experiment with TK-10 renal, more than 100 µM.

For the compound `Cc1ccc(S(=O)(=O)n2cc(C#N)c(C#N)c2)cc1`, the TGI is 78.9 µM in the experiment on A549 NSCLC; 48.2 µM with MCF7 breast; 45.6 µM in the experiment on MDA-MB-435; more than 100 µM in the experiment on NCI-H460 lung; more than 100 µM in the experiment with OVCAR-4 ovarian; 85 µM with PC-3 prostate. The TGI in the experiment with SK-MEL-28 melanoma is 30.8 µM; with SK-OV-3 ovarian, 91.9 µM; in the experiment on SN12C renal, 69.1 µM; with TK-10 renal, more than 100 µM.

Turning to `O=C1c2ccccc2C(=O)N1c1nc(-c2ccc(Cl)cc2)cc(N2N=C(c3ccc(Br)cc3)CC2c2ccccc2)n1` (stereo not given), the TGI in the experiment with A549 NSCLC is 17.4 µM; with MCF7 breast, 4.57 µM; with MDA-MB-435, 2.62 µM; in the experiment on NCI-H460 lung it was more than 41.9 µM; in the experiment with OVCAR-4 ovarian, more than 33 µM; in the experiment with PC-3 prostate it was more than 27.5 µM. The TGI in the experiment with SK-MEL-28 melanoma is 21.4 µM; with SK-OV-3 ovarian, more than 46.1 µM; with SN12C renal it was 17.1 µM; in the experiment on TK-10 renal it was more than 49 µM.

With `Cc1ccccc1OC(C)C(=O)NN1C(=O)CC(=O)N(c2ccccc2)C1=S` (stereo not given), the TGI in the experiment with A549 NSCLC, in the experiment on MCF7 breast, in the experiment with MDA-MB-435, in the experiment on NCI-H460 lung, with OVCAR-4 ovarian and with PC-3 prostate was more than 100 µM in each case. Besides, the TGI in the experiment on SK-MEL-28 melanoma, in the experiment on SK-OV-3 ovarian, in the experiment on SN12C renal and with TK-10 renal was more than 100 µM in each case.

For the compound `CCOC(=O)C1CCCCN1CCc1c[nH]c2ccccc12` (stereo not given), the TGI in the experiment with A549 NSCLC, with MCF7 breast, with MDA-MB-435, in the experiment with NCI-H460 lung, with OVCAR-4 ovarian and in the experiment on PC-3 prostate was more than 100 µM in each case. Besides, the TGI in the experiment on SK-MEL-28 melanoma, with SK-OV-3 ovarian, with SN12C renal and with TK-10 renal was more than 100 µM in each case.

These data come from PubChem BioAssay (NCI).
